Reference: patent publication US5541343A, “Cyclic imino derivatives and pharmaceutical compositions containing them” (Karl Thomae GmbH, priority 1990, dated 1996)
Counter-ions that a name gives are not always drawn.

Experiments:
human thrombocytes = assay: Fibrinogen binding to human thrombocytes; conditions: gel-filtered platelets, 125-J-fibrinogen, 20 minutes at ambient temperature; read-out: Fibrinogen binding test IC50
Procedure: 1. Fibrinogen binding to human thrombocytes
Blood obtained by puncture of an antecubital vein is anticoagulated with trisodium citrate (final concentration: 13 mM) and centrifuged for 10 minutes at 170 g. The supernatant platelet-rich plasma is placed on a Sepharose 2B column (Pharmacia) and eluted with a solution of 90 mM common salt, 14 mM trisodium citrate, 5 mM glucose and 50 mM tris(hydroxymethyl)aminomethane, adjusted to pH 7.4. The gel-filtered platelets (GFP) appearing in front of the plasma proteins are used for the binding tests.
50 μl of a 60 mM calcium chloride solution, 50 μl of a 0.6 mM adenosine diphosphate solution, 100 μl of substance solution or solvent and 50 μl of fibrinogen solution (containing 3 μg 125-J-fibrinogen) are added to 750 μl of GFP and incubated for 20 minutes at ambient temperature. The non-specific binding is measured in the presence of 3 mg/ml of cold fibrinogen.
900 μl of the incubate are carefully pipetted onto 250 μl of silicon oil (AP 38: AR 20, 1:2 v/v, Wacker Chemie) in Eppendorf vessels and centrifuged for 2 minutes at 10,000 g. The aqueous supernatant and some of the oil are removed, the tip of the vessel with the platelet pellet is cut off and the quantity of bound fibrinogen is measured in a gamma-counter. The concentration of substance which inhibits fibrinogen binding by 50% is calculated from a concentration series and given as the IC50.

platelet aggregation = assay: Antithrombotic effect: collagen-induced platelet aggregation (Born and Cross method) in platelet-rich plasma; type: cell-based; conditions: Homo sapiens, 10 minutes preincubation at 37° C., 50% change in optical density, read-out: Inhibition of platelet aggregation EC50
Procedure: The thrombocyte aggregation is measured by the Born and Cross method (J. Physiol. 170: 397 (1964)) in platelet-rich plasma from healthy test subjects. To inhibit coagulation, 3.14% sodium citrate is added to the blood in a ratio by volume of 1:10.
Collagen-induced aggregation
The curve of the decrease in optical density of the platelet suspension is measured and recorded photometrically after the addition of the aggregation-inducing substance. The speed of aggregation is determined from the angle of inclination of the density curve. The point on the curve where maximum transmittance occurs is used to calculate the optical density.
The quantity of collagen is made as small as possible but sufficient to produce an irreversible reaction curve. Standard commercial collagen made by Hormonchemie of Munich is used. Before the addition of collagen, the plasma is incubated for 10 minutes with the substance at 37° C.
From the measurements obtained, an EC50 is determined graphically relating to a 50% change in the optical density in the sense of an inhibition of aggregation.

[1] = test system: collagen-induced thrombocyte aggregation; assay: Collagen-induced thrombocyte aggregation ex vivo in rhesus monkeys following oral administration; conditions: 1 mg/kg
Procedure: Moreover, the compound of Example 70(1), for example, inhibits collagen-induced thrombocyte aggregation ex vivo in rhesus monkeys following oral administration of 1 mg/kg for more than 8 hours.

[2] = Approximate LD50 in rats (tolerability); conditions: rat, in vivo, after intravenous route
Procedure: The new compounds are well tolerated since the approximate LD50 in rats is, for example, for the compound of Example (3) above 100 mg/kg after intravenous route and for the compound of Example 70(1) above 2.000 mg/kg after oral administration.

| SMILES | IC50 (human thrombocytes) [nM] | EC50 (platelet aggregation) [nM] | inhibits collagen-induced thrombocyte aggregation ex vivo (duration of inhibition) [1] | LD50 [2] [mg/kg] |
| --- | --- | --- | --- | --- |
| N=C(N)c1ccc(-c2ccc(OC[C@H]3CNC(=O)[C@@H]3CC(=O)O)cc2)cc1 (relative stereo) [7(89), (3R,S;4R,S)-4-[(4'-amidino-4-biphenylyl)oxymethyl]-3-carboxymethyl-2-pyrrolidinone] | 230 | 2800 |  |  |
| COC(=O)C[C@@H]1C[C@@H](COc2ccc(-c3ccc(C(=N)N)cc3)cc2)NC1=O [6(2), (3S,5S)-5-[(4'-amidino-4-biphenylyl)oxymethyl]-3-[(methoxycarbonyl)methyl]-2-pyrrolidinone×1.25 HCl] | 2300 | 1900 |  |  |
| N=C(N)c1ccc(-c2ccc(OC[C@@H]3C[C@@H](CC(=O)O)C(=O)N3c3ccccc3)cc2)cc1 [7(1), (3S,5S)-5-[(4'-amidino-4-biphenylyl)oxymethyl]-3-carboxymethyl-1-phenyl-2-pyrrolidinone-dihydrate] | 24 | 170 |  |  |
| N=C(N)c1ccc(-c2ccc(OC[C@@H]3C[C@@H](CC(=O)O)C(=O)N3)cc2)cc1 [7(3), (3S,5S)-5-[(4'-amidino-4-biphenylyl)oxymethyl]-3-carboxymethyl-2-pyrrolidinone] | 31 | 60 |  |  |
| Cc1c(OC[C@@H]2C[C@@H](CC(=O)O)C(=O)N2CCCc2ccccc2)ccc(-c2ccc(C(=N)N)cc2)c1C [7(10), (3S,5S)-5-[(4'-amidino-2,3-dimethyl-4-biphenylyl)oxymethyl]-3-carboxymethyl-1-(3-phenylpropyl)-2-pyrrolidinone-hydrate] | 50 | 2600 |  |  |
| N=C(N)c1ccc(Nc2ccccc2C(=O)NC[C@@H]2C[C@@H](CC(=O)O)C(=O)N2CCCc2ccccc2)cc1 [7(41), (3S,5S)-5-[[2-[(4-amidinophenyl)amino]phenyl]carbonylaminomethyl]-3-carboxymethyl-1-(3-phenylpropyl)-2-pyrrolidinone] | 2800 | 19000 |  |  |
| CC(=O)N1C[C@H](CC(=O)O)C[C@H]1COc1ccc(-c2ccc(C(=N)N)cc2)cc1 [7(56), (3S,5S)-1-acetyl-5-[(4'-amidino-4-biphenylyl)oxymethyl]-3-carboxymethyl-pyrrolidine-semihydrate] | 20 | 60 |  |  |
| CN(C)S(=O)(=O)N1C[C@H](CC(=O)O)C[C@H]1COc1ccc(-c2ccc(C(=N)N)cc2)cc1 [7(58), (3S,5S)-5-[(4'-amidino-4-biphenylyl)oxymethyl]-3-carboxymethyl-1-(dimethylaminosulphonyl)-pyrrolidine×0.25 water] | 20 | 210 |  |  |
| N=C(N)c1ccc(-c2ccc(S(=O)(=O)NC[C@@H]3C[C@@H](CC(=O)O)C(=O)N3CCCc3ccccc3)cc2)cc1 [7(70)] | 400 | 19000 |  |  |
| NCCCCc1ccc(OC[C@@H]2C[C@@H](CC(=O)O)C(=O)N2CCCc2ccccc2)cc1 [23(8), (3S,5S)-5-[[4-(4-aminobutyl)phenyl]oxymethyl]-3-carboxymethyl-1-(3-phenylpropyl)-2-pyrrolidinonesemihydrate ×1.25 HCl] | 4600 | 20000 |  |  |
| NCCCC(=O)Nc1ccc(OC[C@@H]2C[C@@H](CC(=O)O)C(=O)N2CCCc2ccccc2)cc1 [32(1), (3S,5S)-5-[[4-[(3-aminopropyl)carbonylamino]phenyl]oxymethyl]-3-carboxymethyl-1-(3-phenylpropyl)-2-pyrrolidinone] | 2200 | 33000 |  |  |
| NC1CCc2cc(C(=O)NCC[C@@H]3C[C@@H](CC(=O)O)C(=O)N3CCCc3ccccc3)ccc2C1 (stereo partly drawn) [Example 32, (3S,5S)-5-[2-[(6-Amino-5,6,7,8-tetrahydro-2-naphthylcarbonyl)amino]ethyl]-3-carboxymethyl-1-(3-phenylpropyl)-2-pyrrolidinone-semihydrate] | 1200 | 5800 |  |  |
| COC(=O)C[C@@H]1C[C@@H](COc2ccc(-c3ccc(C(=N)NC(=O)OC)cc3)cc2)NC1=O [Example 70(1), (3S,5S)-5-[[4'-(N-methoxycarbonylamidino)-4biphenylyl]oxymethyl]-3-[(methoxycarbonyl)methyl]-2-pyrrolidinone] |  |  | more than 8 hours |  |
| N=C(NO)c1ccc(-c2ccc(OC[C@@H]3C[C@@H](CC(=O)O)C(=O)N3)cc2)cc1 [Example 71, (3S,5S)-3-Carboxymethyl-5-[[4'-(N-hydroxyamidino)-4biphenylyl)oxymethyl]-2-pyrrolidinone] | 4600 | 11000 |  |  |
| N=C(N)c1ccc(-c2ccc(OC[C@@H]3C[C@@H](CC(=O)O)C(=O)N3)cc2)cc1 [Example (3), (3S,5S)-5-[(4'-amidino-4-biphenylyl)oxymethyl]-3-carboxymethyl-2-pyrrolidinone] |  |  |  | > 100 |

Further compounds by falling IC50 (human thrombocytes), results first:

| IC50 (human thrombocytes) [nM] | EC50 (platelet aggregation) [nM] | SMILES | inhibits collagen-induced thrombocyte aggregation ex vivo (duration of inhibition) [1] | LD50 [2] [mg/kg] |
| --- | --- | --- | --- | --- |
| 4700 | 66000 | N=C(N)NCCCCCOc1ccc([C@@H]2C[C@@H](CC(=O)O)C(=O)N2CCCc2ccccc2)cc1 (relative stereo) [31(1), (3S,R;5S,R)-3-carboxymethyl-5-[4-[(5-guanidinopentyl)oxy]phenyl]-1-(3-phenylpropyl)-2-pyrrolidinone] |  |  |
| 690 | 12000 | N=C(N)c1cccc(C(=O)c2ccc(OC[C@@H]3C[C@@H](CC(=O)O)C(=O)N3CCCc3ccccc3)cc2)c1 [7(46), (3S,5S)-5-[[4-[(3-amidinophenyl)carbonyl]phenyl]oxymethyl]-3-carboxymethyl-1-(3-phenylpropyl)-2-pyrrolidinone] |  |  |
| 420 | 1000 | N=C(N)c1ccc(-c2ccc(N3CC(CP(=O)(O)O)CC3=O)cc2)cc1 (centres unmarked) [6(184), 1-(4'-amidino-4-biphenylyl)-4-phosphonomethyl-2-pyrrolidinone] |  |  |
| 170 | 2000 | CC(=O)N(C[C@@H]1C[C@@H](CC(=O)O)C(=O)N1CCCc1ccccc1)c1ccc(-c2ccc(C(=N)N)cc2)cc1 [7(40), (3S,5S)-5-[[N-(4'-amidino-4-biphenylyl)-N-acetyl]aminomethyl]-3-carboxymethyl-1-(3-phenylpropyl)-2-pyrrolidinonehydrate] |  |  |
| 41 | 410 | N=C(N)c1ccc2c(c1)C(=O)c1cc(OC[C@@H]3C[C@@H](CC(=O)O)C(=O)N3CCCc3ccccc3)ccc1-2 [7(36), (3S,5S)-5-[(7-amidino-9-keto-2-fluorenyl)oxymethyl]-3-carboxymethyl-1-(3-phenylpropyl)-2-pyrrolidinone] |  |  |
| 32 | 900 | N=C(N)c1ccc(-c2ccc(OC[C@@H]3C[C@@H](CC(=O)O)C(=O)N3CCCc3ccccc3)cc2)cc1 [Example 7, (3S,5S)-5-[(4'-Amidino-4-biphenylyl)oxymethyl)-3-carboxymethyl-1-(3-phenylpropyl)-2-pyrrolidinone-hydrate] |  |  |
| 27 | 80 | CN(C)C(=O)CN1C(=O)[C@H](CC(=O)O)C[C@H]1COc1ccc(-c2ccc(C(=N)N)cc2)cc1 [7(51), (3S,5S)-5-[(4'-amidino-4-biphenylyl)oxymethyl]-3-carboxymethyl-1-[(dimethylaminocarbonyl)methyl]-2-pyrrolidinone hydrochloride-semihydrate] |  |  |
| 26 | 100 | N=C(N)c1ccc(-c2ccc(OC[C@@H]3C[C@@H](CC(=O)O)C(=O)N3)cc2)cc1F [7(93), (3S,5S)-5-[(4'-amidino-3'-fluoro-4-biphenylyl)oxymethyl]-3-carboxymethyl-2-pyrrolidinone] |  |  |
